Patent publication US4288432A, “Novel enkephalin analogs and process for the preparation thereof” (Richter Gedeon Vegyeszeti Gyar Rt., priority 1979, dated 1981)
Non-standard residues stand in square brackets, D forms with d. Residues, ends and D or L forms follow the SMILES beside them. *: point of attachment. Tyr(Nα-amidino) = N=C(N)N[C@@H](Cc1ccc(O)cc1)C(=O)*; dNle = CCCC[C@@H](N)C(=O)O

Key:
Assay type in all cases: cell-based
guinea-pig ileum (GPI) [1] = experiment: GPI assay according to Kosterlitz and Watt (opiate activity); details: guinea-pig ileum preparation; assay of Kosterlitz and Watt 1968; relative to normorphine = 1.0
Text: (§1) 39, 398 (1970)] and in mouse ves deferens (MVD) preparations [J. Hughes et al.: Br. J. Pharmacol. 53, 371 (1975)]. […] The figures represent the activities of compounds relative to […] (the activity of normorphine is taken as unity=1.0).
^a GPI assay according to Kosterlitz and Watt [Br.J. Pharmacol. 33,

guinea-pig ileum (GPI) [2] = experiment: GPI assay according to Kosterlitz et al. (opiate activity); details: guinea-pig ileum preparation; assay of Kosterlitz et al. 1970; relative to normorphine = 1.0
Text: as §1
^b GPI assay according to Kosterlitz et al. [Br. J. Pharmacol. 39, 39

mouse vas deferens (MVD) = experiment: MVD assay according to Hughes et al. (opiate activity); details: mouse vas deferens preparation; assay of Hughes et al. 1975; relative to normorphine = 1.0
Text: as §1
^c MVD assay according to Hughes et al. [Br. J. Pharmacol. 53, 371

| SMILES | Opiate activity GPI^a (opiate activity of normorphine = 1.0) (guinea-pig ileum (GPI) [1]) | Opiate activity GPI^b (opiate activity of normorphine = 1.0) (guinea-pig ileum (GPI) [2]) | Opiate activity MVD^c (opiate activity of normorphine = 1.0) (mouse vas deferens (MVD)) |
| --- | --- | --- | --- |
| CC(=O)O.CCCC[C@@H](NC(=O)[C@@H](N)Cc1ccc(O)cc1)C(=O)NCC(=O)N[C@@H](Cc1ccccc1)C(=O)N1CCC[C@H]1C(N)=O.O [H-Tyr-D-Nle-Gly-Phe-Pro-NH2, L-Tyrosyl-D-norleucyl-glycyl-L-phenylalanyl-L-proline amide acetate hydrate] (H-Y[dNle]GFP-NH2) | 12 | 12 | 10 |
| CCCC[C@@H](NC(=O)[C@H](Cc1ccc(O)cc1)NC(=N)N)C(=O)NCC(=O)N[C@@H](Cc1ccccc1)C(N)=O [H2 N-C-(NH)-Tyr-D-Nle-Gly-Phe-NH2, amidino-L-tyrosyl-D-norleucyl-glycyl-L-phenylalanine amide] | 126 | 79 | 18 |
| CC(=O)O.CCCC[C@@H](NC(=O)[C@@H](N)Cc1ccc(O)cc1)C(=O)NCC(=O)N[C@@H](Cc1ccccc1)C(N)=O.O [H-Tyr-D-Nle-Gly-Phe-NH2, L-Tyrosyl-D-norleucyl-glycyl-L-phenylalanine amide acetate hydrate] (H-Y[dNle]GF-NH2) | 22 | 22 | 8 |
| CC(=O)O.CSCC[C@@H](NC(=O)[C@@H](N)Cc1ccc(O)cc1)C(=O)NCC(=O)N[C@@H](Cc1ccccc1)C(=O)N1CCC[C@H]1C(N)=O.O.O.O [H-Tyr-D-Met-Gly-Phe-Pro-NH2, L-tyrosyl-D-methionyl-glycyl-L-phenylalanyl-proline amide acetate trihydrate] (H-Y[dM]GFP-NH2) | 8 | 8 | 8 |
| CSCC[C@@H](NC(=O)[C@H](Cc1ccc(O)cc1)NC(=N)N)C(=O)NCC(=O)N[C@@H](Cc1ccccc1)C(=O)N1CCC[C@H]1C(N)=O [H2 N-C-(NH)-Tyr-D-Met-Gly-Phe-Pro-NH2, amidino-L-tyrosyl-D-methionyl-glycyl-L-phenylalanyl-L-proline amide] ({Tyr(Nα-amidino)}-[dM]GFP-NH2) | 825 | 173 | 25 |
| CC(=O)O.CSCC[C@@H](NC(=O)[C@@H](N)Cc1ccc(O)cc1)C(=O)NCC(=O)N[C@@H](Cc1ccccc1)C(N)=O.O [H-Tyr-D-Met-Gly-Phe-NH2, L-Tyrosyl-D-methionyl-glycyl-L-phenylalanine amide acetate hydrate] (H-Y[dM]GF-NH2) | 17 | 17 | 4 |
| CSCC[C@@H](NC(=O)[C@H](Cc1ccc(O)cc1)NC(=N)N)C(=O)NCC(=O)N[C@@H](Cc1ccccc1)C(N)=O [H2 N-C-(NH)-Tyr-D-Met-Gly-Phe-NH2, amidino-L-tyrosyl-D-methionyl-glycyl-L-phenylalanine amide] | 211 | 79 | 21 |
| CCCC[C@@H](NC(=O)[C@H](Cc1ccc(O)cc1)NC(=N)N)C(=O)NCC(=O)N[C@@H](Cc1ccccc1)C(=O)N1CCC[C@H]1C(N)=O [H2 N-C-(NH)-Tyr-D-Nle-Gly-Phe-Pro-NH2, amidino-L-tyrosyl-D-norleucyl-glycyl-L-phenylalanyl-L-proline amide] ({Tyr(Nα-amidino)}-[dNle]GFP-NH2) | 79 | 21 | 17 |
